# Test results published in publication PMC5065612, “A small molecule inhibitor of mutant IDH2 rescues cardiomyopathy in a D-2-hydroxyglutaric aciduria type II mouse model” (Journal of Inherited Metabolic Disease, 2016).
# Assays:
# [1] = biological target: T1, IDH2R140Q (isocitrate dehydrogenase 2) (Homo sapiens, UniProt P48735, R140Q); experiment: NADPH depletion end-point assay (diaphorase/resazurin), […] h preincubation, recombinant enzyme; format: biochemical
# T1 construct: gene IDH2; IDH2R140Q homodimer, recombinant purified enzyme
# T1 sequence (P48735 40-452 R140Q): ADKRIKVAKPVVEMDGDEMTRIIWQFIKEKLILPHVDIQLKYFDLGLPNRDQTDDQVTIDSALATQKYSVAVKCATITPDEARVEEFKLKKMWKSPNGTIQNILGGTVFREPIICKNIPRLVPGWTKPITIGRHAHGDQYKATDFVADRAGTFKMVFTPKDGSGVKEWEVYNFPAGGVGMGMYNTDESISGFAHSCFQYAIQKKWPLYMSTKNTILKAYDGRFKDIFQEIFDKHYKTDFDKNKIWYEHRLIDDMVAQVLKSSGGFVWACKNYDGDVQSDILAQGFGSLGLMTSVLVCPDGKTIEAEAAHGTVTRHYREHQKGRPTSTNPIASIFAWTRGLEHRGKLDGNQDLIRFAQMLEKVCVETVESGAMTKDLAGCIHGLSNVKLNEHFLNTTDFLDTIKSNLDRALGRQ
# [2] = biological target: T2, Idh2R140Q (mouse isocitrate dehydrogenase 2) (Mus musculus, UniProt P54071, R140Q); experiment: 2HG production in culture medium of knock-in ES cells, LC-MS; format: cell-based
# T2 construct: gene Idh2; Idh2R140Q knock-in mouse embryonic stem cells
# T2 sequence (P54071 40-452 R140Q): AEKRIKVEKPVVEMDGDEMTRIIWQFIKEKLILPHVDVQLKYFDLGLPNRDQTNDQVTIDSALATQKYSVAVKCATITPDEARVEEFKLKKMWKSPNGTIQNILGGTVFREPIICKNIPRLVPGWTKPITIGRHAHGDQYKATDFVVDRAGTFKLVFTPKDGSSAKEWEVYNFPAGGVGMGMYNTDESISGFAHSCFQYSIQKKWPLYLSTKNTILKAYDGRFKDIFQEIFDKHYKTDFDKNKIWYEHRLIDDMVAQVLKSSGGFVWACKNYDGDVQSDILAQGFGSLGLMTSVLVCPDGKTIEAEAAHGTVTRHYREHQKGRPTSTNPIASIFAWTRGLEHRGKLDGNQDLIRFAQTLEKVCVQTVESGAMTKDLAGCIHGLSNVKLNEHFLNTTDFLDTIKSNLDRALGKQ
smiles,measurement,setting,value
CC(C)Nc1nc(Nc2ccnc(C(F)(F)F)c2)nc(-c2cccc(C(F)(F)F)n2)n1 [AGI-026],IC50,[1],4 ± 0.2 nM
same,IC50,[2],5.4 ± 2.8 nM
